From ChEMBL document CHEMBL1141339, “Studies on terpenoids produced by actinomycetes: oxaloterpins A, B, C, D, and E, diterpenes from Streptomyces sp. KO-3988” (2007) come the findings set out here.

Each structure is given as a SMILES string.

In one assay the test system is Bacillus subtilis. Briefly: Antibacterial activity against Bacillus subtilis ATCC 43223. Format: functional.
A further assay concerns Staphylococcus aureus. The assay is described as follows: Antibacterial activity against Staphylococcus aureus ATCC 29213. Format: functional.

As for `C=C[C@@]1(C)CC=C2[C@@H](CC[C@@H]3C(C)(C)[C@H](OC(=O)C(=O)N(O)C(C)=O)CC[C@@]23C)C1` [OXALOTERPIN A], the IC with Bacillus subtilis was found to be 1.9 nmol/mL; in the assay with Staphylococcus aureus, 3.7 nmol/mL.
